From patent publication US10471010B2, “Liposomal corticosteroids for treatment of inflammatory disorders in humans” (ENCELADUS PHARMACEUTICALS B.V., priority 2011, dated 2019)

How the values were obtained:
[1] = test system: rats with adjuvant-induced arthritis; experiment: Rat adjuvant-induced arthritis, paw inflammation scores; format: in vivo, Lewis rats; conditions: for effect on the course of the disease: single injection, equal dose (10 mg/kg), 10 mg/kg
Experimental: Lewis rats were immunized subcutaneously at the tail base with heat-inactivated Mycobacterium tuberculosis in incomplete Freund's adjuvant. […] Assessment of the disease was performed by visually scoring paw inflammation severity, maximum score 4 per paw, and measuring disease-induced body weight loss. The therapeutic efficacy of liposomal prednisolone phosphate on these variables was compared with equal doses unencapsulated drug. Rats were treated when the average score >6 (at day 14 or 15 after disease induction).

[2] = potency of prednisolone set to 1; cited from earlier work

SMILES | average inflammation scores ([1]; 20 mg/kg daily for 7 days, day 15 until day 21, from average 6.5 on day 14) | effect of repeated daily treatment ([1]; repeated daily treatment) | effect on the course of the disease [1] | effect on the course of the disease ([1]; listed as free prednisolone) | potency ratio as compared to prednisolone [2]
C[C@]12C=CC(=O)C=C1CC[C@@H]1[C@@H]2[C@@H](O)C[C@@]2(C)[C@H]1CC[C@]2(O)C(=O)COP(=O)(O)O [Unencapsulated prednisolone phosphate, prednisolone phosphate] | around 5.0 | short-lasting moderate effect | did not significantly alter the course of the disease | not effective | 
CC(=O)OCC(=O)[C@@]1(O)CC[C@H]2[C@@H]3CCC4=CC(=O)CC[C@]4(C)[C@@]3(F)[C@@H](O)C[C@@]21C [fludrocortisone acetate] |  |  |  |  | 3.5
C[C@]12C=CC(=O)C=C1CC[C@H]1[C@@H]3C[C@@H](O)[C@](O)(C(=O)CO)[C@@]3(C)C[C@H](O)[C@@]12F [triamcinolone] |  |  |  |  | 1.25
